Source: PMC10224444, “Novel Perspectives on the Design and Development of a Long-Acting Subcutaneous Raltegravir Injection for Treatment of HIV—In Vitro and In Vivo Evaluation” (Pharmaceutics, 2023)

Legend:
[1] = set-up: method as in PMID 33979164; conditions: cited from earlier work
[2] = set-up: method as in PMID 33979164; conditions: cited from earlier work; remark: listed apart in the source
[3] = set-up: method as in PMID 33979164; conditions: cited from earlier work; remark: listed apart in the source
[4] = set-up: method as in PMID 36678931; conditions: pH 6.5, over 6 d; cited from earlier work
[5] = Pharmacokinetic study after single SC injection in BALB/c mice; assay type: in vivo; conditions: mouse, in vivo, single SC 30 mg/kg
Description: The pharmacokinetic profile of prodrug 25 was evaluated in mice, in a study undertaken at WuXi AppTec. Prodrug 25 was dissolved in a sterile vehicle of DMSO/Solutol HS15/water (10:10:80) to give a clear solution with a final concentration of 6 mg/mL. The same procedure was used to prepare a 6 mg/mL solution of RAL as a control. Six male BALB/c mice were used, each weighing 18–25 g and aged between 7–9 weeks (three per group). A single 30 mg/kg dose of prodrug 25 was administered to each animal in the treatment group (subcutaneously, in the thoracic region). Similarly, RAL (30 mg/kg) was administered to each animal in the control group. Blood samples were taken at the time points indicated below, up to the experiment endpoint (96 h).
For each animal, blood samples (30 μL each) were collected from the submandibular or saphenous vein over a period of 96 h, at the following time points: zero/pre-dose; then 0.25, 0.5, 1, 2, 3, 4, 5, 6, 24, 48, and 96 h. All samples were transferred into pre-chilled commercial K2EDTA tubes and placed on wet ice until processing for plasma, which was obtained by centrifugation at 4 °C and 3200× g for 10 min, within 30 min of sampling. The plasma samples were transferred to polypropylene tubes, snap-frozen on dry ice, and kept at −70 ± 10 °C until LC-MS/MS analysis.
An LC-MS/MS method was developed to measure the concentrations of prodrug 25 and RAL in the biological matrix. Two mobile phases were used: mobile phase A (0.025% NH4OH and 2 mM NH4OAc in 95:5 v/v water/MeCN) and mobile phase B (0.025% NH4OH and 2 mM NH4OAc in 5:95 v/v water/MeCN). A UPLC method was performed using an LC-MS/MS-BM Triple Quad 6500 plus system with an ACQUITY UPLC BEH C18 1.7 μm column (2.1 × 50 mm) at a flow rate of 0.65 mL/min. The assay time was 2.5 min, and the solvent B composition was as follows: 10–100% (0.2–1.4 min), 30% (1.41–1.7 min), 95% (2.0–2.4 min), and 10% (2.41–2.5 min). The retention times for the prodrug, RAL and the internal standards (tolbutamide and verapamil) were 0.76, 1.04, 0.66, and 0.97 min, respectively. Quantification was performed by monitoring the transition of m/z 835.3 [M+H]^+ to 457.2 for prodrug 25, representing the cyclisation of the linker with the amidic RAL such as in side-product 22; whereas for RAL, the transition m/z 445.2 [M+H]^+ to 361.2 was followed, representing the loss of the 2-methyl-1,3,4-oxadiazole moiety as the main fragmentation pathway. For the internal standards, the m/z transition from 455.2 [M+H]^+ to 164.9 was used for verapamil (corresponding to formation of the verapamil fragment [CH2CH2-(3,4-dimethoxy phenyl)]^+), and for tolbutamide, the transition of m/z of 271.1 [M+H]^+ to 155.1 was used, representing formation of the [CH3-Ph-SO2]^+ fragment. […] The method was linear over the measured standard concentrations for 25 and RAL. The mean plasma concentration was determined for 25 and RAL (as metabolite or control) at each sampling time point. Pharmacokinetic parameters were then calculated by non-compartmental analysis of plasma concentration/time profiles using the Phoenix WinNonlin 6.3 software. The computed parameters were as follows: peak plasma concentration (Cmax); the time over which the initial concentration is reduced to half (t½); area under the plasma concentration versus time curve from time zero to 96 h (AUC 0–96 h); and mean residence time from time zero to 96 h (MRT 0–96 h).
Since in vitro models are not fully predictive of in vivo pharmacokinetics, especially for prodrugs, assessment of these characteristics still relies on in vivo studies. Therefore, the pharmacokinetic profile of prodrug 25 was evaluated in mice. Compound 25 and the control (RAL) were dissolved in DMSO/Solutol HS15/water (10:10:80). For a single SC injection of 25 (30 mg/kg) in BALB/c mice (n = 3), the plasma concentrations of prodrug and released RAL were measured at the following time points: zero/pre-dose; then 0.25, 0.5, 1, 2, 3, 4, 5, 6, 24, 48, and 96 h. […]

[6] = set-up: method as in PMID 23515248; conditions: cited from earlier work
[7] = set-up: method as in PMID 18321239; conditions: cited from earlier work
[8] = plasma level of the dosed compound, male BALB/c mice, n = 3

In the case of `CNCCCOC(=O)OCOc1c(-c2ccc(Oc3ccc(OC(F)(F)F)cc3)cc2F)c(C)nc2cc(OC)c(Cl)cc12` [Compound 2], the “payload released over 5 h” value ([1]; pH 7.0, over 5 h) is given as > 55%, the “aqueous solubility compared with the parent compound” value [2] is given as “enhanced” and the “oral bioavailability compared with the parent compound” value [3] is given as “enhanced”.
For `CNCCOC(=O)OCOc1c(-c2ccc(Oc3ccc(OC(F)(F)F)cc3)cc2F)c(C)nc2cc(OC)c(Cl)cc12` [Compound 1], the “parent compound released within 1 h” value ([1]; pH 7.0, within 1 h) is listed as > 90%, the “aqueous solubility compared with the parent compound” value [2] is listed as “enhanced” and the “oral bioavailability compared with the parent compound” value [3] is listed as “enhanced”.
For `C#CCCCNCCCCOC(=O)OCOc1ccc(N)cc1C(=O)O` [Compound 4], the “release of mesalamine over 6 d” value [4] is given as 92%.
`Cc1nnc(C(=O)NC(C)(C)c2nc(C(=O)NCc3ccc(F)cc3)c(O)c(=O)n2C)o1` [RAL, raltegravir] gave a concentration at 6 h ([5]; male, RAL control, BALB/c mice, 6 h, read-out: plasma concentration remaining after 6 h) of 10.7 ng/mL, a Cmax [5, 8] of 6230 ng/mL and a Tmax [5, 8] of 19.8 min. For the same compound, the AUC(0-t) ([5]; plasma level of the dosed compound, male BALB/c mice, n = 3, read-out: AUC 0–96 h) was 9890 ng·h/mL, the half-life ([5]; plasma level of the dosed compound, male BALB/c mice, n = 3, read-out: t½ (converted)) was 45.6 min and the pKa [6] was 6.7. For the same compound, the “half-life (t½)” value [7] was 420 to 720 min.
